In patent publication US9902986B2, “Enterobactin conjugates and uses thereof” (Massachusetts Institute of Technology, priority 2013, dated 2018):

Assays:
E. coli H1187 (fepA-) = experiment: Growth recovery assay, E. coli (fepA-); format: cell-based, Escherichia coli; conditions: 200 μM DP
Protocol: (§1) General microbiology methods are as described herein or according to processes known in the art. […] Bacterial growth was assayed by measuring OD600 using a BioTek Synergy HT plate reader. Each well condition was prepared in duplicate and three independent replicates of each assay were conducted on different days. The resulting mean OD600 are reported and the error bars are the standard deviation of the mean obtained from the three independent replicates.
(§2) Three non-pathogenic E. coli strains were employed that are defective in enterobactin synthesis, enterobactin transport, or ferric enterobactin utilization in growth recovery assays. E. coli ATCC 33475 (ent-) cannot biosynthesize enterobactin, but retains the capacity to import and metabolize the siderophore.^71 E. coli H1187 (fepA-) lacks the outer membrane enterobactin receptor. E. coli K-12 JW0576 (fes-) can accumulate ferric enterobactin, but cannot release the iron because it is deficient in the enterobactin esterase Fes. As a result of these defects in iron metabolism, all three strains grow poorly under conditions of iron limitation.^71 The iron chelator 2,2′-dipyridyl (dipyridyl, DP) was used to generate iron-deficient conditions and promote expression of siderophore transport machinery in the growth recovery assays.

[1] = tested on: E. coli K-12 JW0576 (fes-); experiment: Growth recovery assay, E. coli (fes-); format: cell-based, Escherichia coli; conditions: 200 μM DP
Protocol: as §1, §2

[2] = tested on: E. coli ATCC 33475 (ent-); format: cell-based, Escherichia coli; conditions: 10 μM
Protocol: as §1, §2

[3] = tested on: P. aeruginosa K648 (pvd-, pch-); format: cell-based, Pseudomonas aeruginosa
Protocol: as §1
(§3) It was next sought to determine whether the enterobactin-cargo conjugates provided growth recovery for Pseudomonas aeruginosa PAO1. This Gram-negative opportunistic human pathogen synthesizes and exports two siderophores, pyoverdine (pvd) and pyochelin (pch), and employs multiple additional mechanisms for iron acquisition.^72,73 P. aeruginosa utilizes enterobactin as a xenosiderophore, and the genes pfeA^74,75 and pirA^76 encode outer membrane enterobactin transporters. Similar to the E. coli experiments, P. aeruginosa strains deficient in siderophore production or utilization were used in growth recovery assays.

[4] = tested on: P. aeruginosa K407 (pvd-, pFr-); experiment: Growth recovery assay, P. aeruginosa (pfeA-); format: cell-based, Pseudomonas aeruginosa; conditions: 600 μM DP; for growth inhibition of P. aeruginosa (pfeA-): micromolar concentrations
Protocol: as §1, §3

[5] = tested on: human colon epithelial T84 cells; experiment: Cytotoxicity study using MTT; conditions: 24 h
Protocol: Colon epithelial T84 cell line (purchase from ATCC) were grown in DMEM/F12 medium containing penicillin (100 I.U./mL) and streptomycin (100 μg/mL). The cells were passed and plated in 96-well flat-bottom plates ˜16 h before treatment. Each well contained 90 µL of the cell culture at a density of 10^5 cells/mL. Stock solutions of the tested conjugates (e.g., Ent-Amp) were prepared in sterile filtered 10% DMSO/water, and 10 μL of the each solution was added to each well. The plate was incubated at 37° C. and under 5% CO2 for 24 h and 20 μL of MTT (5 mg/mL in sterile PBS) was added to each well. The plate was incubated at 37° C. for another 4 h, and the supernatant was removed from each well. DMSO (100 μL) was added to the wells to afford a purple solution, and the absorbance at 550 nm was recorded by using a plate reader. Blank readings were generated by wells that only contain the growth medium but no cells. The assay was repeated in three independent trials, and the resulting mean and standard errors are reported. […] Ent-Amp, Ent, and Amp were incubated with human colon epithelial T84 cells for 24 h.
In another exemplary experiment, the human colon epithelial T84 cell line was purchased from ATCC and cultured in 1:1 DMEM/F12 medium with 10% fetal bovine serum, 1% penicillin, and streptomycin (v/v, ATCC). The cells were grown to approximately 95% confluency and treated with 3 mL of trypsin-EDTA (Corning). A 12-mL portion of fresh medium was added to the detached cells, and the T84 cell suspension was centrifuged (600 rpm×5 min, 37° C.). The supernatant was discarded, and the cell pellet was resuspended in 6 mL of the fresh culture media. The concentration of cells was quantified by using a manual hemocytometer (VWR International) and adjusted to 1×10^5 cells/mL. A 90-μL aliquot of T84 cells were then added to 96-well plates and incubated at 37° C. and 5% CO2 for 24 h. […] DMSO (100 μL) was added to each well and the absorbance at 550 nm was recorded by using a plate reader. Blank readings were recorded on wells that only contained the medium. […]

[6] = three catecholate groups; cited from earlier work
FepA = FepA (Escherichia coli, UniProt P05825); conditions: E. coli outer membrane transporter; cited from earlier work
Lipocalin-2 (lcn2) = Lipocalin-2 (lcn2) (Homo sapiens, UniProt P80188); conditions: cited from earlier work
Chain of Lipocalin-2 (lcn2) (P80188 21-198): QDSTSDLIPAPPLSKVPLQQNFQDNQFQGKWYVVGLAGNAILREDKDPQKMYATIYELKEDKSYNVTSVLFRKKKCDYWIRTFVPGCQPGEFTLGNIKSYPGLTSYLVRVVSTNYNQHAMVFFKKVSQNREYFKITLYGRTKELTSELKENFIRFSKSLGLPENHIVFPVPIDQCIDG

Chain of FepA (P05825 23-746): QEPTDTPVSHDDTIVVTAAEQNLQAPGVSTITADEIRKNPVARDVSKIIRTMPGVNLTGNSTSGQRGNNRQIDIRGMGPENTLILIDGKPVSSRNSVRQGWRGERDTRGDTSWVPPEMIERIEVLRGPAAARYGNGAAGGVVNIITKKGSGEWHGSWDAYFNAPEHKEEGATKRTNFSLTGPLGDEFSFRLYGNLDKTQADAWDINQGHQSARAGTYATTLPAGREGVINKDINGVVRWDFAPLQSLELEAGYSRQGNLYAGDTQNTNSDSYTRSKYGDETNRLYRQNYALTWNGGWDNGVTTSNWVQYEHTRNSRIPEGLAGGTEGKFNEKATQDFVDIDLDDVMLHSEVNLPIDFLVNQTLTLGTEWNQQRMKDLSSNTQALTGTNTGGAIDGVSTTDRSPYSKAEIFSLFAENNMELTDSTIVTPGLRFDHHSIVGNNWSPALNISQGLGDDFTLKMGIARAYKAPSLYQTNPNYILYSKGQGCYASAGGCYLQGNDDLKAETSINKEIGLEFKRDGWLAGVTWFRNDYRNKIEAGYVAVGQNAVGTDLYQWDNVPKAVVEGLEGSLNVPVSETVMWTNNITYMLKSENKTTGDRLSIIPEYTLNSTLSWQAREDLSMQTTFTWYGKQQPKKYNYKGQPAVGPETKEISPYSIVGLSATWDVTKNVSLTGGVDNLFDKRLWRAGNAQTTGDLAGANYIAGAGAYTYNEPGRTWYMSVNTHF

## CC(C)(C)OC(=O)NCCOCCOCCOCCNC(=O)c1cc(O)c(O)c(C(=O)N[C@H]2COC(=O)[C@@H](NC(=O)c3cccc(O)c3O)COC(=O)[C@@H](NC(=O)c3cccc(O)c3O)COC2=O)c1 [conjugate 29, Tert-butyl(1-(3-(((3S,7S,11S)-7,11-bis(2,3-dihydroxybenzamido)-2,6,10-trioxo-1,5,9-trioxacyclododecan-3-yl)carbamoyl)-4,5-dihydroxyphenyl)-1-oxo-5,8,11-trioxa-2-azatridecan-13-yl)carbamate]
E. coli H1187 (fepA-)
  growth restoration of E. coli (fepA-): No growth restoration
[1]
  growth restoration of E. coli (fes-): No growth restoration

## Vancomycin-PEG-Ent [conjugate 42]
[2]; +DP
  effect on E. coli growth: inhibited the growth of E. coli
[3]; ±DP
  effect on growth of P. aeruginosa (pvd-, pch-): growth inhibitory effect

## O=C(N[C@H]1COC(=O)[C@@H](NC(=O)c2cccc(O)c2O)COC(=O)[C@@H](NC(=O)c2cccc(O)c2O)COC1=O)c1cccc(O)c1O [L-Ent, Enterobactin]
[2]; 50% MHB, 200 μM DP, 30° C., t=19 h
  OD600 of E. coli (ent-) culture: ~0.2
[3]; low-micromolar concentrations, 50% MHB, 600 μM DP, 30° C., t=19 h
  OD600 of P. aeruginosa (pvd-, pch-) culture: ~0.40
[4]
  growth enhancement of P. aeruginosa (pfeA-): no growth enhancement
  growth inhibition of P. aeruginosa (pfeA-): growth inhibition at micromolar concentrations
[5]; 10 μM
  decrease of percent survival of T84 cells: approximately 30%
[6]
  Ka for Fe(III) coordination: ~10^49 M^−1

## O=C(NCCOCCOCCOCCNC(=O)C1CCCCC1)c1cc(O)c(O)c(C(=O)N[C@H]2COC(=O)[C@@H](NC(=O)c3cccc(O)c3O)COC(=O)[C@@H](NC(=O)c3cccc(O)c3O)COC2=O)c1 [conjugate 30, N^3-((3S,7S,11S)-7,11-Bis(2,3-dihydroxybenzamido)-2,6,10-trioxo-1,5,9-trioxacyclododecan-3-yl)-N^1-(1-cyclohexyl-1-oxo-5,8,11-trioxa-2-azatridecan-13-yl)-4,5-dihydroxyisophthalamide]
E. coli H1187 (fepA-)
  growth restoration of E. coli (fepA-): No growth restoration
[1]
  growth restoration of E. coli (fes-): No growth restoration
[4]
  growth enhancement of P. aeruginosa (pfeA-): no growth enhancement
  growth inhibition of P. aeruginosa (pfeA-): growth inhibition at micromolar concentrations

## O=C(N[C@H]1COC(=O)[C@@H](NC(=O)c2cccc([O-])c2[O-])COC(=O)[C@@H](NC(=O)c2cccc([O-])c2[O-])COC1=O)c1cccc([O-])c1[O-].[Fe+3] [ferric enterobactin]
FepA
  affinity of FepA for ferric enterobactin: sub-nanomolar affinity
Lipocalin-2 (lcn2)
  affinity of lcn2 for ferric enterobactin: low-nanomolar affinity

## O=C(N[C@H]1COC(=O)[C@@H](NC(=O)c2cccc([O-])c2[O-])COC(=O)[C@@H](NC(=O)c2cccc([O-])c2[O-])COC1=O)c1cccc([O-])c1[O-].[Fe+3] [Ent with pre-loaded Fe]
[5]; concentrations up to 10 μM
  effect on viability of T84 cells (MTT): did not exhibit this effect
